Reference: US9763445B2, “Safened herbicidal compositions comprising a pyridine carboxylic acid herbicide” (Dow AgroSciences, LLC, priority 2014, dated 2017)

Columns and labels:
thistle (CIRAR) = assay: Postemergence greenhouse trial, % visual injury on thistle; assay type: in vivo, Cirsium arvense; settings: Cirsium arvense, post-emergence, alone, read-out: % visual injury, Ob
Summary of the method: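 Visual injury, 0 (none) to 100 (complete kill), rated 20-22 d after overhead track-sprayer application at 187 L/ha; Colby's equation gave expected mixture responses. Herbicide (g ae/ha) and cloquintocet-mexyl safener (g ai/ha) diluted in aqueous 1.5% v/v Agri-dex, applied to weeds at 2–3 true leaves.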

[1] = system: purple deadnettle (LAMPU); assay: Postemergence greenhouse trial, % visual injury on purple deadnettle; assay type: in vivo, Lamium purpureum
Method: Seeds of the desired test plant species were planted in Sun Gro MetroMix® 306 planting mixture, which typically has a pH of 6.0 to 6.8 and an organic matter content of about 30 percent, in plastic pots with a surface area of 103.2 square centimeters (cm^2). When required to ensure good germination and healthy plants, a fungicide treatment and/or other chemical or physical treatment was applied. The plants were grown for 7-36 days (d) in a greenhouse with an approximate 14-hour (h) photoperiod which was maintained at about 23° C. during the day and 22° C. during the night. Nutrients and water were added on a regular basis and supplemental lighting was provided with overhead metal halide 1000-Watt lamps as necessary. The plants were employed for testing when they reached the second or third true leaf stage.
Weighed amounts of technical material were dissolved in a volume of 97:3 volume per volume (v/v) acetone/dimethyl sulfoxide (DMSO) to stock solutions. […] The concentrated stock solutions were diluted with an aqueous mixture of 1.5% v/v of Agri-dex crop oil concentrate to provide the appropriate application rates. Compound requirements are based upon a 12 milliliter (mL) application volume at a rate of 187 liters per hectare (L/ha). Stocks solutions of the safeners were prepared following the same procedure. Spray solutions of the safeners and experimental compound mixtures were prepared by adding the stock solutions to the appropriate amount of dilution solution to form a 12 mL spray solution in two-way combinations. Formulated compounds were applied to the plant material with an overhead Mandel track sprayer equipped with 8002E nozzles calibrated to deliver 187 L/ha over an application area of 0.503 square meters (m^2) at a spray height of 18 inches (43 centimeters (cm)) above average plant canopy. Control plants were sprayed in the same manner with the solvent blank. All herbicide application (component a) rates are in g ae/ha and all safener (component b) rates are in g ai/ha.
The treated plants and control plants were placed in a greenhouse as described above and watered by sub-irrigation to prevent wash-off of the test compounds. After 20-22 d, the condition of the test plants as compared with that of the control plants was determined visually and scored on a scale of 0 to 100 percent where 0 corresponds to no injury and 100 corresponds to complete kill. […] Colby's equation was used to determine the herbicidal effects expected from the mixtures. […]

common poppy (PAPRH) = assay: Postemergence greenhouse trial, % visual injury on common poppy; assay type: in vivo, Papaver rhoeas; settings: for % visual injury, Ob / % visual injury, observed (Ob): PAPRH
Summary of the method: (§1)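 Herbicide rates g ae/ha, safener (cloquintocet-mexyl) rates g ai/ha; spray carrier 1.5% v/v crop oil concentrate, 187 L/ha, 2nd–3rd leaf stage. Rating: visual % injury at 20-22 d.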

[2] = system: bird's-eye speedwell (VERPE); assay: Postemergence greenhouse trial, % visual injury on bird's-eye speedwell; assay type: in vivo, Veronica persica
Summary of the method: as §1

CCCCCC(C)OC(=O)COc1ccc(Cl)c2cccnc12 (centres unmarked) [CQC-m, cloquintocet-mexyl, reference compound]
0%: pest or weed control at 35 g/ha (thistle (CIRAR); 35 g/ha) | pest or weed control at 70 g/ha (thistle (CIRAR); 70 g/ha) | % visual injury, Ob ([1]; LAMPU, compound 0, CQC-m 4.375 g/ha) | % visual injury, Ob ([1]; LAMPU, compound 0, CQC-m 8.75 g/ha) | % visual injury, Ob ([1]; LAMPU, compound 0, CQC-m 17.5 g/ha) | % visual injury, Ob ([1]; LAMPU, compound 0, CQC-m 35 g/ha) | % visual injury, Ob ([1]; LAMPU, compound 0, CQC-m 70 g/ha) | % visual injury, Ob ([1]; LAMPU, compound 0 g/ha, CQC-m 4.375 g/ha) | % visual injury, Ob ([1]; LAMPU, compound 0 g/ha, CQC-m 8.75 g/ha) | % visual injury, Ob ([1]; LAMPU, compound 0 g/ha, CQC-m 17.5 g/ha) | % visual injury, Ob ([1]; LAMPU, compound 0 g/ha, CQC-m 35 g/ha) | % visual injury, Ob ([1]; LAMPU, compound 0 g/ha, CQC-m 70 g/ha) | % visual injury, Ob ([1]; alone, 4.375 g/ha) | % visual injury, Ob ([1]; alone, 8.75 g/ha) | % visual injury, Ob ([1]; alone, 17.5 g/ha) | % visual injury, Ob ([1]; alone, 35 g/ha) | % visual injury, Ob ([1]; alone, 70 g/ha) | % visual injury, Ob (common poppy (PAPRH); 4.375 g/ha, applied alone) | % visual injury, Ob (common poppy (PAPRH); 8.75 g/ha, applied alone) | % visual injury, Ob (common poppy (PAPRH); 17.5 g/ha, applied alone) | % visual injury, Ob (common poppy (PAPRH); 35 g/ha, applied alone) | % visual injury, Ob (common poppy (PAPRH); 70 g/ha, applied alone) | % visual injury, Ob (common poppy (PAPRH); compound 0, CQC-m 4.375 g/ha) | % visual injury, Ob (common poppy (PAPRH); compound 0, CQC-m 8.75 g/ha) | % visual injury, Ob (common poppy (PAPRH); compound 0, CQC-m 17.5 g/ha) | % visual injury, Ob (common poppy (PAPRH); compound 0, CQC-m 35 g/ha) | % visual injury, Ob (common poppy (PAPRH); compound 0, CQC-m 70 g/ha) | % visual injury, Ob (common poppy (PAPRH); compound 0 g/ha, CQC-m 4.375 g/ha) | % visual injury, Ob (common poppy (PAPRH); compound 0 g/ha, CQC-m 8.75 g/ha) | % visual injury, Ob (common poppy (PAPRH); compound 0 g/ha, CQC-m 17.5 g/ha) | % visual injury, Ob (common poppy (PAPRH); compound 0 g/ha, CQC-m 35 g/ha) | % visual injury, Ob (common poppy (PAPRH); compound 0 g/ha, CQC-m 70 g/ha) | % visual injury, observed (Ob) (common poppy (PAPRH); compound 8 0 + CQC-m 4.375 g/ha) | % visual injury, observed (Ob) (common poppy (PAPRH); compound 8 0 + CQC-m 8.75 g/ha) | % visual injury, observed (Ob) (common poppy (PAPRH); compound 8 0 + CQC-m 17.5 g/ha) | % visual injury, observed (Ob) (common poppy (PAPRH); compound 8 0 + CQC-m 35 g/ha) | % visual injury, observed (Ob) (common poppy (PAPRH); compound 8 0 + CQC-m 70 g/ha) | pest or weed control at 4.375 g/ha (common poppy (PAPRH); Papaver rhoeas, post-emergence, alone, 4.375 g/ha, read-out: % visual injury, Ob) | pest or weed control at 8.75 g/ha (common poppy (PAPRH); Papaver rhoeas, post-emergence, alone, 8.75 g/ha, read-out: % visual injury, Ob) | pest or weed control at 17.5 g/ha (common poppy (PAPRH); Papaver rhoeas, post-emergence, alone, 17.5 g/ha, read-out: % visual injury, Ob) | pest or weed control at 35 g/ha (common poppy (PAPRH); Papaver rhoeas, post-emergence, alone, 35 g/ha, read-out: % visual injury, Ob) | pest or weed control at 70 g/ha (common poppy (PAPRH); Papaver rhoeas, post-emergence, alone, 70 g/ha, read-out: % visual injury, Ob) | % visual injury, Ob ([2]; VERPE, compound 0, CQC-m 4.375 g/ha) | % visual injury, Ob ([2]; VERPE, compound 0, CQC-m 8.75 g/ha) | % visual injury, Ob ([2]; VERPE, compound 0, CQC-m 17.5 g/ha) | % visual injury, Ob ([2]; VERPE, compound 0, CQC-m 35 g/ha) | % visual injury, Ob ([2]; VERPE, compound 0, CQC-m 70 g/ha) | % visual injury, Ob ([2]; VERPE, compound 0 g/ha, CQC-m 4.375 g/ha) | % visual injury, Ob ([2]; VERPE, compound 0 g/ha, CQC-m 8.75 g/ha) | % visual injury, Ob ([2]; VERPE, compound 0 g/ha, CQC-m 17.5 g/ha) | % visual injury, Ob ([2]; VERPE, compound 0 g/ha, CQC-m 35 g/ha) | % visual injury, Ob ([2]; VERPE, compound 0 g/ha, CQC-m 70 g/ha) | % visual injury, observed (Ob) ([2]; VERPE, compound 8 0 + CQC-m 4.375 g/ha) | % visual injury, observed (Ob) ([2]; VERPE, compound 8 0 + CQC-m 8.75 g/ha) | % visual injury, observed (Ob) ([2]; VERPE, compound 8 0 + CQC-m 17.5 g/ha) | % visual injury, observed (Ob) ([2]; VERPE, compound 8 0 + CQC-m 35 g/ha) | % visual injury, observed (Ob) ([2]; VERPE, compound 8 0 + CQC-m 70 g/ha) | % visual injury, Ob ([2]; alone, 4.375 g/ha) | % visual injury, Ob ([2]; alone, 8.75 g/ha) | % visual injury, Ob ([2]; alone, 17.5 g/ha) | % visual injury, Ob ([2]; alone, 35 g/ha) | % visual injury, Ob ([2]; alone, 70 g/ha)
